The values below come from patent US4737505A, “Analgesic 4-substituted indoles” (priority 1984, dated 1988).

Where two headings read alike, the source gives them in different places.

One assay deals with T1, opiate receptor μ (Rattus norvegicus, UniProt P33535).
T1 construct: prepared from brains of rats; from tissue; host or cells: rat brain membranes
The assay is described as follows: Bond to the opiate receptor μ in vitro (displacement of 3H dihydromorphine, rat brain membranes). The class given is binding, rats. The following applies: for IC50: 3H dihydromorphine 0.7 nM, rat brain membranes, Tris buffer pH 7.7, 25° C., 40 minutes, read-out: 50% inhibiting concentration (IC50); for relative bond affinity (RBA): relative to morphine=100. The method, then: (1) Bond to the opiate receptor μ in vitro
Membrane residues preserved at -30° C. for about 30 days and prepared from brains of rats were used in this test and these residues were suspended in Tris buffer pH 7.7. Fractions of 2 ml were distributed into hemolysis tubes and ^3 H dihydromorphine 0.7 nM and the product to be studied were added. The products were first of all tested with 5×10^-6 M in triplicate. When the tested products displaced more than 50% of the radioactivity specifically linked to the receptor, they were tested again according to a range of 7 doses to determine the dose which inhibited by 50% the radioactivity specifically linked to the receptor. The 50% inhibiting concentration was thus determined.
The non-specific bond was determined by addition of 10^-5 M morphine in triplicate. After incubating at 25° C. for 40 minutes, returning to the water-bath at 0° C. for 5 minutes, filtering under vacuum, rinsing with Tris buffer pH 7.7, the radioactivity was counted in the presence of scintillating Trition. The results were expressed: either directly as 50% inhibiting concentration (IC50), that is as a concentration of the product studied, expressed in nM, necessary to displace 50% of the specific radioactivity fixed on the receptor studied, or in relative bond affinity (RBA), taking morphine=100 as a reference [formula]
A general note: In a radioligand displacement assay an active substance lowers the binding of a labelled ligand.

Another assay deals with T2, opiate receptor K (Cavia porcellus, UniProt P41144).
T2 construct: Membrane residues prepared from guinea-pig cerebellum; from tissue; host or cells: guinea-pig cerebellum membranes
T2 sequence (P41144 whole entry): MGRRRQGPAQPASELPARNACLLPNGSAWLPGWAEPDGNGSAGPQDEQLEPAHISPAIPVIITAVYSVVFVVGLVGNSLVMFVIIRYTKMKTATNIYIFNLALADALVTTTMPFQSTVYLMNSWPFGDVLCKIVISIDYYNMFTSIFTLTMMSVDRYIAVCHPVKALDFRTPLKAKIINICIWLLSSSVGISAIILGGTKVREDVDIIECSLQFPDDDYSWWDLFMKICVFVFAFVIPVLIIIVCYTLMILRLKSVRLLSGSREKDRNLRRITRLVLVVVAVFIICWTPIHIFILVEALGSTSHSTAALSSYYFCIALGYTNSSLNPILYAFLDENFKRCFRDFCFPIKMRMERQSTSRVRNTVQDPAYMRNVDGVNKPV
The assay is described as follows: Bond to the opiate receptor K in vitro (displacement of 3H Ethylketocyclazocin, guinea-pig cerebellum membranes). The class given is binding. The following applies: for IC50: 3H Ethylketocyclazocin 1 nM, guinea-pig cerebellum membranes, Tris buffer pH 7.7, 25° C., 40 minutes, read-out: 50% inhibiting concentration (IC50); for relative bond affinity (RBA): relative to product U 50 488 H as reference. As for the experimental part: (2) Bond to the opiate receptor K in vitro
Membrane residues prepared from guinea-pig cerebellum kept at -30° C. for about 30 days were used and these residues were suspended in Tris buffer pH 7.7. Fractions of 2 ml were distributed into hemolysis tubes, and […] Ethylketocyclazocin 1 nM and the product to be studied were added. The products were first tested to 5×10^-6 M in triplicate. When the products tested displaced more than 50% of the radioactivity specifically linked to the receptor, they were tested again according to a range of 7 doses to determine the dose which inhibited by 50% the radioactivity specifically linked to the receptor. In this way, the 50% inhibiting concentration was determined.
The non-specific bond was determined by the addition of a product known as U 50488 H(ref. Up. John) to 10^-5 M in triplicate. After incubating at 25° C. for 40 minutes, returning to the water-bath at 0° C. for 5 minutes, filtering under reduced pressure, and rinsing in Tris buffer pH 7.7, the radioactivity was counted in the presence of scintillating Trition. The results were expressed: either directly as 50% inhibiting concentration (IC50), that is as a concentration of the product studied, expressed in nM, necessary to displace 50% of the specific radioactivity fixed on the receptor studied, or in relative bond affinity (=RBA) taking the product U 50 488 H as reference [formula]

Assay [1] can be described thus: Analgesic activity, warm plate test. The class given is in vivo. The following applies: Mus musculus, 1 h, female mice, 56° C. plate, 60 minutes after treatment, read-out: AD100 (dose which increased the reaction time by 100%). As for the experimental part:
Female mice weighing from 22 to 24 g were placed one by one on a copper plate maintained at 56° C. The reaction to pain was shown by the animals licking their front paws and the time of this reaction was noted and was only retained when the mice reacted in less than 8 seconds. The animals were divided into equal groups and were treated with the products to be studied, one group receiving only the vehicle. The time of reaction to pain was again measured 30 to 60 minutes after the treatment and the active dose or AD100 was the dose which increased the reaction time by 100%, 60 minutes after the treatment, taking account of the variations of the reaction time of the control animals.

T1 sequence (P33535 whole entry): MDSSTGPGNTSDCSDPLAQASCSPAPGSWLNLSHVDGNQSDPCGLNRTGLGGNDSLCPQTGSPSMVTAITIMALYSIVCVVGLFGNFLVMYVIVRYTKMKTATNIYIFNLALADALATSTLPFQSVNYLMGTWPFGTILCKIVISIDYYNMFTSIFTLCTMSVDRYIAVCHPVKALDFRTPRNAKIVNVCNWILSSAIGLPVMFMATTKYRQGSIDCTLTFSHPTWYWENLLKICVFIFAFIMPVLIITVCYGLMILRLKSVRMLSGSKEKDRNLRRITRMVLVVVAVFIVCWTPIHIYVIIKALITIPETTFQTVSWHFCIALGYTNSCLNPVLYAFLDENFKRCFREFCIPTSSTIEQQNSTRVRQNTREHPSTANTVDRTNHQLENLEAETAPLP

Regarding `Cl.O=C1Cc2c(cccc2C2=CCN(CCCC(=O)c3ccc(F)cc3)CC2)N1` [Example 32, 1,3-dihydro-4-[1-[(4-fluorophenyl)-4-oxobutyl]-1,2,3,6-tetrahydropyridin-4-yl]-2H-indole-2-one hydrochloride], on opiate receptor μ, the IC50 is 3.5 nM and the “relative bond affinity (RBA)” value was 62. Further, at opiate receptor K, the IC50 is 460 nM and the “relative bond affinity (RBA)” value worked out at 1.3.
As to `Cl.O=C1Cc2c(cccc2C2=CCN(CCc3ccccc3)CC2)N1` [Example 26, 1,3-dihydro-4-[1-(2-phenylethyl)-1,2,3,6-tetrahydro-4-pyridinyl]-2H-indole-2-one hydrochloride], at opiate receptor μ, the IC50 is 59 nM and the “relative bond affinity (RBA)” value stood at 8.2.
Take `C=CCOc1ccccc1OCC(O)CN1CC=C(c2cccc3c2CC(=O)N3)CC1` (centres unmarked) [Example 13, 1,3-dihydro-4-[1-[2-hydroxy-3-[2-(2-propenyloxy)-phenoxy]propyl]-1,2,3,6-tetrahydro-4-pyridinyl]-2H-indol-2-one]: on opiate receptor μ, the IC50 turned out to be 1.4 nM and the “relative bond affinity (RBA)” value was found to be 270. Moreover, the ED (100% increase in reaction time) in assay [1] (oral route) was 20 mg/kg.
As for `Cl.O=C1Cc2c(cccc2C2=CCN(CCOc3ccccc3)CC2)N1` [Example 29, 1,3-dihydro-4-[1-(2-phenoxyethyl)-1,2,3,6-tetrahydro-4-pyridinyl]-2H-indol-2-one hydrochloride], the IC50 on opiate receptor μ was 11 nM; on opiate receptor K it was 152 nM. Also, the “relative bond affinity (RBA)” value was found to be 23 at opiate receptor μ and 1.1 on opiate receptor K.
For `CCCN1CC=C(c2cccc3[nH]ccc23)CC1` [Example 7, 4-(1-propyl-1,2,3,6-tetrahydropyridin-4-yl)-1H-indole], at opiate receptor K, the IC50 is 182 nM and the “relative bond affinity (RBA)” value is reported as 1.4.
Turning to `C=CCOc1ccccc1OCC(O)CN1CC=C(c2cccc3[nH]ccc23)CC1` (stereo not drawn) [Example 11, 4-(1H-indol-4-yl)-α-[[2-(2-propenyloxy)-phenoxy]-methyl]-1,2,3,6-tetrahydro-1-pyridine ethanol], on opiate receptor μ, the IC50 amounted to 9.43 nM and the “relative bond affinity (RBA)” value is listed as 22.43.
Consider `COC1(c2cccc3[nH]ccc23)CCNCC1` [Example 14, 4-(4-methoxy-4-piperidinyl)-1H-indole], for which, on opiate receptor μ, the IC50 came to 28 nM and the “relative bond affinity (RBA)” value is recorded as 13. For the same compound, the ED (100% increase in reaction time) in assay [1] (central, intracerebral ventricle route) was determined as 0.5 mg/kg.
